# Like-named read-outs stand apart in the source and are kept apart here.
# Columns and labels:
# glucocorticoid receptor = molecular target: T1, glucocorticoid receptor (Homo sapiens, UniProt P04150); assay: Glucocorticoid Receptor Binding Assay (fluorescence polarisation, displacement of Alexa 555 labelled dexamethasone derivative); settings: at least once in this assay; read-out: glucocorticoid binding pIC50 (converted)
# T1 construct: a partially purified full length glucocorticoid receptor
# T1 sequence (P04150 1-777): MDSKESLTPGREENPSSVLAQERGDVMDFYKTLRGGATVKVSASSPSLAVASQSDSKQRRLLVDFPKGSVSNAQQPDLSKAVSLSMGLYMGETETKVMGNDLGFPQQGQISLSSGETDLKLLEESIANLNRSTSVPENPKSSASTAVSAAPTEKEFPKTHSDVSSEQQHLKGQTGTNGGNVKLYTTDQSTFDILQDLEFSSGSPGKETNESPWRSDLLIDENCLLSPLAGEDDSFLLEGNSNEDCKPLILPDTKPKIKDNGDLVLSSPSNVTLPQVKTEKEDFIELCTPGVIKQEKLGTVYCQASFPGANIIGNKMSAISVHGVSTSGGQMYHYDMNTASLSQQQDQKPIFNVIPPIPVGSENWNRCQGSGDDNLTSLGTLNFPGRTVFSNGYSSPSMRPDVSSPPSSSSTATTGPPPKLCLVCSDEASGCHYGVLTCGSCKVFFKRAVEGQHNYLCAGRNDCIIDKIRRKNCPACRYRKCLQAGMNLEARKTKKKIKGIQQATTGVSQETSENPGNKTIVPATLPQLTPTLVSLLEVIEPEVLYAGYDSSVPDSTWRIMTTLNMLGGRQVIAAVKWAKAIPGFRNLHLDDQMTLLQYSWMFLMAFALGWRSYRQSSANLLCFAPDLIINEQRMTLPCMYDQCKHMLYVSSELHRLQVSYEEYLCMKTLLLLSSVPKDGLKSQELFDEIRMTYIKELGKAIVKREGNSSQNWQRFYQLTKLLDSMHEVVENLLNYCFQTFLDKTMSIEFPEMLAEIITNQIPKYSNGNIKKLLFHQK
# In short: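 Partially purified full-length GR incubated with test compound and fluorescent dexamethasone plus GR-stabilising buffer components, 2 hr at room temperature in the dark. Binding scored as displacement of tracer, read as decrease in fluorescence polarisation.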
# GR [1] = molecular target: T2, GR (Homo sapiens, UniProt P04150); assay: GR Functional Assay - NFκB Assay (A549 SPAP cells, TNFα stimulated); format: cell-based; settings: for Emax: agonists, read-out: average maximum asymptote in the NFkB assay
# T2 construct: endogenous in cells; host or cells: A549 (human lung carcinoma, ECACC No. 86012804), stably transfected with reporter plasmids only
# T2 sequence (P04150 1-777): T1 sequence (P04150 1-777)
# In short: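 Stably transfected A549 SPAP cells at 0.16×10^6/ml in DMEM with 10% FCS were added to compound and stimulated with TNFα to drive NFκB-dependent SPAP expression. After 1 hr equilibration at room temperature, SPAP was read colorimetrically with pNPP in diethanolamine buffer, pH 9.8.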
# GR [2] = molecular target: T2, GR; assay: GR Agonist Assay - MMTV Assay (A549 MMTV cells, renilla luciferase reporter); format: cell-based; settings: 6 h, agonists, read-out: average maximum asymptote in the MMTV agonist assay
# In short: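 Stably transfected A549 MMTV cells carry a GR-driven luciferase reporter. Cells at 0.1×10^6/ml in DMEM with 10% FCS and 25 mM HEPES were added to wells containing compound. After detection reagent, plates were held about 15 mins at room temperature and luminescence was read.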
# Progesterone Receptor = molecular target: T3, Progesterone Receptor (Homo sapiens, UniProt P06401); assay: Assay for Progesterone Receptor Agonist Activity (CV-1 cells, PRb-BacMam, MMTV-BacMam); format: cell-based; settings: at least once in this assay, read-out: progesterone receptor agonist pEC50 (converted)
# T3 construct: expressed in transfected cells; host or cells: CV-1 cells transduced with PRb-BacMam and MMTV-BacMam
# T3 sequence (P06401 1-933): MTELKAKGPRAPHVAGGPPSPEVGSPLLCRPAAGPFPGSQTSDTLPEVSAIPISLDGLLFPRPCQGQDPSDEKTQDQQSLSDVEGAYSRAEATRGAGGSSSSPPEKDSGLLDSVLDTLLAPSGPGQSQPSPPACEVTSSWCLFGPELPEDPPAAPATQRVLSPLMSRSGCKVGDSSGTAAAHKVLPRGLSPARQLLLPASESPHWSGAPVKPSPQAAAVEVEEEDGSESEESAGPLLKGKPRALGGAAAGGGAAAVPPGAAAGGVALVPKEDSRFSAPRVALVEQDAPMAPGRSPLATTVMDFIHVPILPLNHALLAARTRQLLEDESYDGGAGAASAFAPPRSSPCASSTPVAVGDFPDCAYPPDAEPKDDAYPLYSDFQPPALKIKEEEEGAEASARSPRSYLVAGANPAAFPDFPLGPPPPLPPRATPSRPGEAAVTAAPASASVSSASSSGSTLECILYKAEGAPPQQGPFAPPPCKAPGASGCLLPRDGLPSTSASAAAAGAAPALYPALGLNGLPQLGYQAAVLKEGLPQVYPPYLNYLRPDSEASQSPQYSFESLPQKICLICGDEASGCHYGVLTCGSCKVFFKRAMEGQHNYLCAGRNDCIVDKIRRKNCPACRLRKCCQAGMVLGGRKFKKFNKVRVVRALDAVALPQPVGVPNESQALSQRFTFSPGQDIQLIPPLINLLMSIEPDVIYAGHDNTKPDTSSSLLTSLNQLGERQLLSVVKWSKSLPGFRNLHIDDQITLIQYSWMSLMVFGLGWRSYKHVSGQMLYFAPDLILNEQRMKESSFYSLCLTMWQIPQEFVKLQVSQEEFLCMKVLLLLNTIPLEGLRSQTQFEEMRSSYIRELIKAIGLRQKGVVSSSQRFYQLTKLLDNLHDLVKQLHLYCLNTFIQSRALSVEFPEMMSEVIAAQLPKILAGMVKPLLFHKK
# Description: A T225 flask of CV-1 cells at a density of 80% confluency was washed with PBS, detached from the flask using 0.25% trypsin and counted using a Sysmex KX-21N. Cells were diluted in DMEM containing 10% Hyclone, 2 mM […] and 1% Pen/Strep at 140 cells/μl and transduced with 10% PRb-BacMam and 10% MMTV-BacMam. […] of suspension cells were dispensed to each well of white Nunc 384-well plates, containing compounds at the required concentration. After 24 hr 10 μl of Steadylite were added to each well of the plates. Plates were incubated in the dark for 10 min before reading them on a Viewlux reader. Dose response curves were constructed from which pEC50 values were estimated.
# [3] = at least once in the NFkB assay, A549 SPAP cells, read-out: pIC50 in the NFkB assay (converted)
# [4] = at least once, examples listed as agonists in NFkB and MMTV assays, read-out: potency pIC50 in the NFKB assay (converted)
SMILES,IC50 (glucocorticoid receptor) [nM],Emax (GR [1]; A549 SPAP cells) [%],IC50 (GR [1]; [3]) [nM],IC50 (GR [1]; [4]) [nM],Emax (GR [2]) [%],EC50 (Progesterone Receptor) [nM]
"CCN(CC(O)(CNC(=O)c1cnn(-c2ccccc2)c1N)C(F)(F)F)C(=O)c1ccccc1F (single isomer, unassigned) [Example 45 Enantiomer 1, 5-amino-N-[2-({ethyl[(2-fluorophenyl)car-bonyl]amino}methyl)-3,3,3-trifluoro-2-hydroxypropyl]-1-phenyl-1H-pyrazole-4-carboxamide]",< 1000,≥ 40,< 1000,< 316,≥ 40,> 1000
"CN(CC(O)(CNC(=O)c1cnn(-c2ccc(F)cc2)c1N)C(F)(F)F)C(=O)c1ccccc1Cl (racemic) [Example 7 (racemic), 5-amino-N-(2-{[[(2-chlorophenyl)car-bonyl](methyl)amino]methyl}-3,3,3-trifluoro-2-hydroxypropyl)-1-(4-fluorophenyl)-1H-pyrazole-4-carboxamide]",< 1000,≥ 40,< 1000,< 316,≥ 40,> 1000
"Nc1c(C(=O)NCC(O)(CN(CCF)C(=O)c2ccccc2Cl)C(F)(F)F)cnn1-c1ccc(F)cc1 (racemic) [Example 15 (racemic), 5-amino-N-(2-{[[(2-chlorophenyl)car-bonyl](2-fluoroethyl)amino]methyl}-3,3,3-trifluoro-2-hydroxypropyl)-1-(4-fluorophenyl)-1H-pyrazole-4-carboxamide]",< 1000,≥ 40,< 1000,< 316,≥ 40,> 1000
"CCN(CC(O)(CNC(=O)c1cnn(-c2ccc(F)cc2)c1N)C(F)(F)F)C(=O)c1cccc2cccnc12 (single isomer, unassigned) [Example 8 Enantiomer 1, N-{2-[({[5-amino-1-(4-fluorophenyl)-1H-pyrazol-4-yl]carbonyl}amino)methyl]-3,3,3-trifluoro-2-hydroxypropyl}-N-ethyl-8-quinolinecarboxamide]",< 1000,≥ 40,< 1000,< 316,≥ 40,> 1000

# Continued, values first:
IC50 (glucocorticoid receptor) [nM],Emax (GR [1]; A549 SPAP cells) [%],IC50 (GR [1]; [3]) [nM],IC50 (GR [1]; [4]) [nM],Emax (GR [2]) [%],EC50 (Progesterone Receptor) [nM],SMILES
< 1000,≥ 40,< 1000,< 316,≥ 40,> 1000,"CCN(CC(O)(CNC(=O)c1cnn(-c2ccc(F)cc2)c1N)C(F)(F)F)C(=O)c1cccc(F)c1F (single isomer, unassigned) [Example 5 Enantiomer 1, 5-Amino-N-(2-{[[(2,3-difluorophenyl)carbonyl](ethyl)amino]methyl}-3,3,3-trifluoro-2-hydroxypropyl)-1-(4-fluorophenyl)-1H-pyrazole-4-carboxamide]"
< 1000,≥ 40,< 1000,< 316,≥ 40,> 1000,"Nc1c(C(=O)NCC(O)(CN(CCF)C(=O)c2ccccc2F)C(F)(F)F)cnn1-c1ccc(F)cc1 (single isomer, unassigned) [Example 2 Enantiomer 1, 5-Amino-1-(4-fluorophenyl)-N-[3,3,3-trifluoro-2-([(2-fluoroethyl)[(2-fluorophenyl)carbonyl]amino]methyl)-2-hydroxypropyl]-1H-pyrazole-4-carboxamide]"
< 1000,≥ 40,< 1000,< 316,≥ 40,> 1000,"CCN(CC(O)(CNC(=O)c1cnn(-c2ccc(F)cc2)c1N)C(F)(F)F)C(=O)c1ccccc1F (racemic) [Example 4 (racemic), 5-Amino-N-[2-({ethyl[(2-fluorophenyl)carbonyl]amino}methyl)-3,3,3-trifluoro-2-hydroxypropyl]-1-(4-fluorophenyl)-1H-pyrazole-4-carboxamide]"
